This note sets out measurements from paper PMC6768323, “Adverse Maternal, Fetal, and Postnatal Effects of Hexafluoropropylene Oxide Dimer Acid (GenX) from Oral Gestational Exposure in Sprague-Dawley Rats” (Environmental Health Perspectives, 2019).

“And” between values parts separate entries of the source, which are not always exact repeats. Identical values can stand only once.

Common to all, as to type: in vivo, Sprague-Dawley rats
Data set [1] has as its system fetal testis. Briefly: Fetal testis custom gene array for phthalate-like effects. As to conditions: 62.5-500 mg/kg/d. As for the experimental part: (§1) For the first two blocks, spanning the full dose range, late gestation (GD18) dams were euthanized by decapitation at ∼2h after the final oral dose [ ∼0830–1000 hours Eastern Standard Time (EST)]. Trunk blood was collected and serum isolated via centrifugation ( 10,000×g for 15 min at 4°C) in vacutainer tubes, transferred to 1.5-mL microcentrifuge tubes and stored at −80°C . Dam liver weight was recorded and a sample of liver tissue was collected into a polypropylene microcentrifuge tube containing 500μL TRIzol Reagent (Invitrogen) on ice. Fetuses were removed and two randomly selected fetuses per litter were weighed. […] Ex vivo fetal testis testosterone production was measured as previously reported ([Wilson et al. 2004b]) except the radioimmunoassay (RIA) utilized here was supplied by ALPCO (Catalog No. 72-TESTO-CT2, ALPCO). […]
Gene expression in fetal testes and fetal/maternal livers was assessed using reverse transcriptase real-time PCR of cDNA synthesized from RNA extracted from sample homogenates. […] RNA concentration and purity (260:280 ratio ≥1.8 ) were determined with a NanoDrop 2000 spectrophotometer (Thermo Scientific). […] PCR reactions were run using RT2 SYBR Green quantitative PCR (qPCR) Master Mix (SABioscience) on an iCycler iQ Real-Time Detection System (Bio-Rad) for fetal testes and on a CFX96 Touch Real-Time Detection System (Bio-Rad) for maternal and fetal livers. […]

Data set [2] deals with fetal testis. Briefly: Ex vivo fetal testis testosterone production. The settings on record: any dose. Here is the method: as §1
Fetal testis testosterone production was normalized to the mean control concentration within a given block and analyzed as percentage of control values across blocks. Maternal liver weight was analyzed using body weight as a covariate within PROC GLM followed by pairwise comparison using LSMEANS, this analysis produces linear regressions of body weight versus liver weight for each dose group. […]

Data set [3] in a line: HFPO-DA concentrations in maternal serum and fetal plasma. Here is the method:
Maternal sera from all three blocks and fetal plasma from the third block were analyzed for HFPO-DA concentrations similar to previously reported methods ([McCord et al. 2018]; [Reiner et al. 2009]; [Rushing et al. 2017]). Serum or plasma samples ( 25μL ) were denatured using 0.1M formic acid (FA) followed by a cold ( −20°C ) acetonitrile (ACN) protein crash. The volumes of FA and ACN varied based on the anticipated concentrations of HFPO-DA in the sample ( 0–100 ng HFPO-DA/mL=100μL FA +0.5mL ACN; 100–5,000 ng HFPO-DA/mL=100μL FA +1.0mL ACN; 5,000–200,000 ng HFPO-DA/mL=1.0mL FA added, then 100-μL subsamples removed and crashed with 900μL cold ACN). Samples were vortex mixed after FA and ACN additions then centrifuged at 10,000×g for 5 min and the supernatant removed. Sample extracts were separated using a Waters ACQUITY ultra performance liquid chromatograph (UPLC) (Waters Corporation) fitted with a Waters ACQUITY UPLC BEH C18 column ( 2.1mm×50mm; 1.7μm; 130 Å ). Detection was performed using a Waters Quattro Premier XE tandem quadrupole mass spectrometer in negative ionization mode. A stable isotope of HFPO-DA ( C313 , Wellington Laboratories) was used as an internal standard for quantitation. Separate calibration curves were prepared for the ranges 0–100 ng/mL , 100–5,000 ng/mL , and 5,000–200,000 ng/mL to account for expected concentration differences between control, offspring (fetus/pup), and dam concentrations across the dose range tested.
Serum HFPO-DA concentrations in the mother and the fetus were analyzed as a function of oral dose administered to the mother. We utilized nonlinear regression (exponential one-phase association) to describe the increase and saturation of serum HFPO-DA concentrations across the full oral dose range ( 1–500mg/kg ) for maternal serum. Fetal plasma HFPO-DA concentrations were only analyzed in the low-dose range ( 1–30mg/kg ), which was better described using a linear uptake model. We compared the slopes of the low-dose linear regressions for maternal serum and fetal plasma HFPO-DA concentrations using GraphPad Prism.

For `O=C(O)C(F)(OC(F)(F)C(F)(F)C(F)(F)F)C(F)(F)F` (stereo not shown) [HFPO-DA, Hexafluoropropylene oxide dimer acid], in data set [1], the “fetal testis gene expression versus controls” value is listed as “not significantly different from controls”. Also, the “fetal testis testosterone production versus controls” value in data set [2] is given as “not significantly different from controls at any dose”. In data set [3] (1-30 mg/kg, linear regression), the “fetal plasma HFPO-DA slope per 1-mg/kg increase in oral maternal dose” value is 0.12 µg/mL and 0.12 ± 0.0094 µg/mL; the fetal plasma y-intercept is given as 0.17±0.13; the “maternal serum HFPO-DA slope per 1-mg/kg increase in oral maternal dose” value was 0.46 µg/mL and 0.46 ± 0.06 µg/mL; the maternal serum y-intercept came out at 0.032±0.80. For the same molecule, in data set [3] (1-500 mg/kg), the “plateau of maternal serum HFPO-DA, exponential one-phase association” value was found to be 112 ± 15 µg/mL.
